In ChEMBL document CHEMBL1201862, “PubChem BioAssay data set” (2004):
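Growth conditions: 96-well plates. Treatment: test compound, 48 hours, 5 concentrations. Analysis: linear interpolation between bracketing concentrations; unreached endpoints set to highest concentration. At the GI50, growth is halved.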 Active and inactive are the calls of the source. Cut-off read from the data, not from the text of the source: active = GI50 up to about 1.1 µM and inactive = higher.

Tests used:
Assay in all cases: growth of human tumour cells (NCI), 48 h
[1] = tested on: MCF7
[2] = tested on: SK-MEL-2
[3] = tested on: MDA-N
[4] = tested on: RPMI-8226
[5] = tested on: PC-3
[6] = tested on: Hs-578T
[7] = tested on: COLO 205
[8] = tested on: OVCAR-5
[9] = tested on: SR
[10] = tested on: K562
[11] = tested on: DU-145
[12] = tested on: M14
[13] = tested on: SK-OV-3
[14] = tested on: OVCAR-8
[15] = tested on: NCI-H226
[16] = tested on: OVCAR-3
[17] = tested on: Malme-3M
[18] = tested on: BT-549
[19] = tested on: HOP-62
[20] = tested on: SNB-19

| SMILES | GI50 [1] | GI50 [2] | GI50 [3] | GI50 [4] | GI50 [5] | GI50 [6] | GI50 [7] | GI50 [8] | GI50 [9] | GI50 [10] | GI50 [11] | GI50 [12] | GI50 [13] | GI50 [14] | GI50 [15] | GI50 [16] | GI50 [17] | GI50 [18] | GI50 [19] | GI50 [20] |
| --- | --- | --- | --- | --- | --- | --- | --- | --- | --- | --- | --- | --- | --- | --- | --- | --- | --- | --- | --- | --- |
| O=C1OC(c2ccc(O)c(-c3ccccc3)c2)(c2ccc(O)c(-c3ccccc3)c2)c2c(Cl)c(Cl)c(Cl)c(Cl)c21 | > 100 µM (inactive) | > 100 µM (inactive) | > 100 µM (inactive) | > 100 µM (inactive) | > 100 µM (inactive) | > 100 µM (inactive) | > 100 µM (inactive) | > 100 µM (inactive) | > 100 µM (inactive) | > 100 µM (inactive) | > 100 µM (inactive) | > 100 µM (inactive) | > 100 µM (inactive) | > 100 µM (inactive) | > 100 µM (inactive) | > 100 µM (inactive) | > 100 µM (inactive) | > 100 µM (inactive) | > 100 µM (inactive) | > 100 µM (inactive) |
| COc1ccc(Cc2cc(OC)c(OC)c(OC)c2)cc1 | 0.203 µM (active) | 0.218 µM (active) | 0.0245 µM (active) | 0.298 µM (active) | 0.234 µM (active) | 0.215 µM (active) | 0.143 µM (active) | 8.83 µM (inactive) | 0.0436 µM (active) | 0.0665 µM (active) | 0.328 µM (active) | 0.411 µM (active) | 0.308 µM (active) | 0.504 µM (active) | 0.923 µM (active) | 0.151 µM (active) | 0.387 µM (active) | 1.54 µM (inactive) | 0.411 µM (active) | 0.324 µM (active) |
| O=C(C[n+]1ccc2ccccc2c1)c1ccc2ccc3ccccc3c2c1 | 2.39 µM (inactive) | 4.56 µM (inactive) | 0.647 µM (active) | 0.129 µM (active) | 2.84 µM (inactive) | 8.32 µM (inactive) | 1.07 µM (active) | 5.07 µM (inactive) | 0.406 µM (active) | 0.151 µM (active) | 6.19 µM (inactive) | 2.22 µM (inactive) | 6.82 µM (inactive) | 3.21 µM (inactive) | 7.94 µM (inactive) | 4.15 µM (inactive) | 7.71 µM (inactive) | 11.2 µM (inactive) | 5.94 µM (inactive) | 2.6 µM (inactive) |
| NNC(=O)CNc1cccc(Br)c1 | > 100 µM (inactive) | > 100 µM (inactive) | > 100 µM (inactive) | > 100 µM (inactive) | > 100 µM (inactive) | > 100 µM (inactive) | > 100 µM (inactive) | > 100 µM (inactive) | > 100 µM (inactive) | > 100 µM (inactive) | > 100 µM (inactive) | > 100 µM (inactive) | > 100 µM (inactive) | > 100 µM (inactive) | > 100 µM (inactive) | > 100 µM (inactive) | > 100 µM (inactive) | > 100 µM (inactive) | > 100 µM (inactive) | > 100 µM (inactive) |
| O=C(CN1CCN(Cc2ccccc2)CC1)N1CCCn2c1nc1ccccc1c2=O | > 100 µM (inactive) | > 100 µM (inactive) | > 100 µM (inactive) | > 100 µM (inactive) | > 100 µM (inactive) | > 100 µM (inactive) | > 100 µM (inactive) | > 100 µM (inactive) | > 100 µM (inactive) | > 100 µM (inactive) | > 100 µM (inactive) | > 100 µM (inactive) | > 100 µM (inactive) | > 100 µM (inactive) | 29.2 µM (inactive) | > 100 µM (inactive) | > 100 µM (inactive) | > 100 µM (inactive) | > 100 µM (inactive) | > 100 µM (inactive) |
| OCCN1CCN(c2nc(N3CCCC3)c3nc(Cl)c(NCc4ccccc4)nc3n2)CC1 | 4.31 µM (inactive) | 6.92 µM (inactive) | 3.7 µM (inactive) | 2.83 µM (inactive) | 9.27 µM (inactive) | 8.61 µM (inactive) | 2.47 µM (inactive) | 13.1 µM (inactive) | 2.54 µM (inactive) | 2.54 µM (inactive) | 8.15 µM (inactive) | 3.03 µM (inactive) | 13.7 µM (inactive) | 8.77 µM (inactive) | 17.6 µM (inactive) | 8.02 µM (inactive) | 6.56 µM (inactive) | 6.84 µM (inactive) | 3.58 µM (inactive) | 7.62 µM (inactive) |
| COc1ccc(N2C=Nn3c(nc4sc5c(c4c3=O)CCCC5)C2)cc1 | > 100 µM (inactive) | 21.3 µM (inactive) | > 100 µM (inactive) | > 100 µM (inactive) | > 100 µM (inactive) | 3.02 µM (inactive) | > 100 µM (inactive) | 32.4 µM (inactive) | > 100 µM (inactive) | > 100 µM (inactive) | > 100 µM (inactive) | 32.5 µM (inactive) | > 100 µM (inactive) | 51.4 µM (inactive) | 84.3 µM (inactive) | > 100 µM (inactive) | 18.1 µM (inactive) | 20.7 µM (inactive) | 3.09 µM (inactive) | 28.2 µM (inactive) |
| CN(C)CC1CC/C(=C\c2ccc(O)cc2)C1=O (stereo unspecified) | 1.66 µM (inactive) | 8.28 µM (inactive) | 2.71 µM (inactive) | 1.02 µM (active) | 9.08 µM (inactive) | 7.11 µM (inactive) | 1.87 µM (inactive) | 17.4 µM (inactive) | 0.931 µM (active) | 0.975 µM (active) | 16.1 µM (inactive) | 2.14 µM (inactive) | 18.4 µM (inactive) | 4.6 µM (inactive) | 10.4 µM (inactive) | 3.67 µM (inactive) | 2.94 µM (inactive) | 2.06 µM (inactive) | 18.5 µM (inactive) | 16.9 µM (inactive) |
| CCOC(=O)c1ccc(NC(=O)O/N=C(/Cl)C(C)C)cc1 | 1.98 µM (inactive) | 15.1 µM (inactive) | 15.8 µM (inactive) | 4.49 µM (inactive) | 20.4 µM (inactive) | 29.5 µM (inactive) | 2.42 µM (inactive) | 17.6 µM (inactive) | 2.87 µM (inactive) | 1.56 µM (inactive) | 28.1 µM (inactive) | 1.16 µM (inactive) | 18.9 µM (inactive) | 13.9 µM (inactive) | 24.4 µM (inactive) | 5.28 µM (inactive) | 3.76 µM (inactive) | 14.9 µM (inactive) | 17 µM (inactive) | 24 µM (inactive) |
| O=C1C=C(Br)C(=O)C12CCc1ccccc12 (stereo unspecified) | 16.5 µM (inactive) | 19.6 µM (inactive) | 16.5 µM (inactive) | 3.05 µM (inactive) | 17.7 µM (inactive) | 35.3 µM (inactive) | 4.05 µM (inactive) | 18 µM (inactive) | 3.27 µM (inactive) | 2.52 µM (inactive) | 16.2 µM (inactive) | 12.4 µM (inactive) | 27.4 µM (inactive) | 14.9 µM (inactive) | 18.3 µM (inactive) | 18.5 µM (inactive) | 14.6 µM (inactive) | 17.9 µM (inactive) | 39 µM (inactive) | 32.9 µM (inactive) |
| O=C(O)c1[nH]c2c([N+](=O)[O-])cc([N+](=O)[O-])cc2c1C(=O)O | > 100 µM (inactive) | > 100 µM (inactive) | 29.9 µM (inactive) |  | > 100 µM (inactive) | > 100 µM (inactive) | > 100 µM (inactive) | > 100 µM (inactive) | 75.5 µM (inactive) | > 100 µM (inactive) | > 100 µM (inactive) | 56.1 µM (inactive) | > 100 µM (inactive) | > 100 µM (inactive) | > 100 µM (inactive) | > 100 µM (inactive) | > 100 µM (inactive) | > 100 µM (inactive) | > 100 µM (inactive) | > 100 µM (inactive) |
| Cc1nc(N)c(N2CCNCC2)c(O)n1 | > 100 µM (inactive) | > 100 µM (inactive) | > 100 µM (inactive) | > 100 µM (inactive) | > 100 µM (inactive) | > 100 µM (inactive) | > 100 µM (inactive) | > 100 µM (inactive) | > 100 µM (inactive) | > 100 µM (inactive) | > 100 µM (inactive) | > 100 µM (inactive) |  | > 100 µM (inactive) | > 100 µM (inactive) | 76.7 µM (inactive) | > 100 µM (inactive) | > 100 µM (inactive) | > 100 µM (inactive) | > 100 µM (inactive) |
| COc1c2c(cc3c1OCO3)[C@]13C=C[C@H](OC)C[C@H]1N(C2)CC3O (stereo partly specified) | > 100 µM (inactive) | > 100 µM (inactive) | > 100 µM (inactive) | > 100 µM (inactive) | > 100 µM (inactive) | > 100 µM (inactive) | > 100 µM (inactive) | > 100 µM (inactive) | 18.4 µM (inactive) |  | > 100 µM (inactive) | > 100 µM (inactive) | > 100 µM (inactive) | > 100 µM (inactive) | > 100 µM (inactive) | > 100 µM (inactive) | > 100 µM (inactive) | > 100 µM (inactive) | > 100 µM (inactive) | > 100 µM (inactive) |
| O=C1CC2C(=O)c3ccccc3CC2c2ccccc21 (stereo unspecified) | 37.2 µM (inactive) | 87.1 µM (inactive) | 36.3 µM (inactive) | 15.2 µM (inactive) | 43 µM (inactive) | > 100 µM (inactive) |  | > 100 µM (inactive) | 13.8 µM (inactive) | 21.3 µM (inactive) | 50.5 µM (inactive) | 69.5 µM (inactive) | > 100 µM (inactive) | 39.5 µM (inactive) | 36.6 µM (inactive) | 26.7 µM (inactive) | 39 µM (inactive) | 81.8 µM (inactive) | > 100 µM (inactive) | > 100 µM (inactive) |
